Common to all, as to type: cell-based
In series [1] the test system is MucilAir nasal human 3D epithelial model. The series can be described thus: Trans-epithelial electronic resistance (TEER), Example 1. To be noted: all measured timepoints. The text has this:
Trans-epithelial electronic resistance (TEER) is a dynamic parameter that reflects the state of epithelia and is typically between 200 to 600 Ω.cm^2. An increase of the TEER value reflects a blockage of the ion channel activities of the MucilAir cell culture. A notable decrease of the TEER values, but with the value still above 100 Ω.cm^2 can be observed in certain cases and indicates an activation of the ion channels. Disruption of cellular junction or holes in the epithelia result in TEER values below 100 Ω.cm^2. When an epithelium is damaged, a decrease of TEER would be associated with an increase of LDH release or a decrease of the cell viability. In this example, TEER was measured after addition of 200 µl of culture medium to the apical compartment of the inserts (i.e. during the washing step). TEER was measured with an EVOMX volt-ohm-meter (World Precision Instruments UK, Stevenage) for each condition. Resistance values (Q) were converted to TEER (Ω.cm^2) using the following formula: TEER (Ω.cm^2) = (resistance value (Ω) - 100 (Ω)) x 0.33 (cm^2), where 100 Q is the resistance of the membrane and 0.33 cm^2 is the total surface of the epithelium in one insert. The TEER measurement was conducted as follows: 200µl of culture medium was added on apical surface of each insert. The EVOMX was turned on. […] Then, the resistance (Q) was measured with the EVOMX in the Ohms measurement function.

Series [2] has the same test system. The series can be described thus: Cilia beating frequency (CBF), Example 1. Conditions: T96h, OC43 infected inserts; Mock 8.5 Hz. The procedure:
Cilia beating frequency (CBF) is a parameter that indicates if the nasal epithelia is healthy and carrying out its physiologic function of mucus transport. CBF was measured by a dedicated setup for this purpose. The system consists of three parts: a Sony XCD V60 camera connected to an Olympus BX51 microscope, a PCI card and a specific package of software. The cilia beating frequency is expressed in Hz. […] CBF was then calculated using relevant software. It should be pointed out that CBF values may be subject to fluctuations due to parameters such as temperature, mucus viscosity or liquid applied on the apical surface of the cell model and observed values should be compared to a control condition in each experiment.
At T96h, the ciliary beating frequency (CBF) and the mucociliary clearance (MCC) of all inserts were measured. 200 µl of culture medium was added apically to all inserts and inserts were let sit for 20 minutes at 34° C. During this time, TEER of all inserts was measured. This apical washing liquid was then removed and was stored at -80° C. until the virus copy number was determined. The basal culture medium was removed and stored. 50 µl of the basal culture medium of all inserts was used for the LDH assay.

In the next series the test system is human coronavirus OC43. The series can be described thus: OC43 viral genome copy number in MucilAir nasal epithelium, Example 1. Conditions: for Mean viral genome copy number, Log 10 ((Copies/ml) + 1): apical wash, 0.00 = below detection limit.

For the molecule “Polyethylene glycol tert-octylphenyl ether [positive controls for cytotoxicity]”, the TEER entry in series [1] is reported as “below 100 Ω.cm^2”.

For `N#C[C@@]1(c2ccc3c(N)ncnn23)O[C@H](CO)[C@@H](O)[C@H]1O` [Positive antiviral control, GS-441524], the “Cilia beating frequency (CBF)” value in series [2] is given as “about 15 Hz”. Moreover, the “Mean viral genome copy number, Log 10 ((Copies/ml) + 1)” value is on record as 0.00 Log 10 ((Copies/ml) + 1) with human coronavirus OC43 (T4h); 0.00 Log 10 ((Copies/ml) + 1) in the series on human coronavirus OC43 (T24h); 0.00 Log 10 ((Copies/ml) + 1) in the series on human coronavirus OC43 (T48h); 5.21 Log 10 ((Copies/ml) + 1) with human coronavirus OC43 (T72h); 4.69 Log 10 ((Copies/ml) + 1) in the series on human coronavirus OC43 (T96h). For the same molecule, in the series with human coronavirus OC43 (each timepoint T24h - T96h), the “Apical genome copy number in comparison to negative control” value was “statistically significantly reduced”.
